Laboratory results from US7910622B2, “Modulation of bacterial quorum sensing with synthetic ligands” (Wisconsin Alumni Research Foundation, priority 2007, dated 2011).
“And” between values parts separate entries of the source, which are not always exact repeats. Equal values may be shown once.

Legend:
TraR = target: T1, TraR (Agrobacterium tumefaciens, UniProt P33905); assay: cell-based; details: for A. tumefaciens-TraR Activation [%]: 10 μM ligand; for A. tumefaciens-TraR Inhibition [%]: 10 μM synthetic ligand against 100 nM OOHL
T1 construct: These strains lack their AHL synthase (I) genes, but retain their native R genes; endogenous in cells; host or cells: A. tumefaciens WCF47 (Δ-traI) with PtraI-lacZ plasmid pCF372

elastase B production = assay: microbe, parasite or virus in culture; assay type: cell-based, Pseudomonas aeruginosa; details: P. aeruginosa PAO1; 200 μM
Protocol: Elastase B production assay in P. aeruginosa. Elastase B activity in P. aeruginosa was measured according to a previously reported method, with the following modifications. P. aeruginosa PAO1 was grown overnight in LB media at 37° C., after which it was diluted to an OD600=0.1. Portions (2 mL) of this culture was added to test tubes containing synthetic compounds to give final concentrations of 20 μM or 200 μM and incubated for 12-14 h at 37° C. with 200 rpm shaking. The OD600 was measured for each tube, after which the contents of the tubes were filtered through a […] Whatman filter to remove all cellular matter. A 100 μL-aliquot of the supernatant was added to 900 μL of an Elastin Congo Red Solution (5 mg of Elastin Congo red substrate per 1 mL of 100 mM Tris-HCl, 1 mM CaCl2 (pH 7.2)) and incubated for 12 h at 37° C. with 250 rpm shaking. The contents of these tubes were then filtered in order to remove unreacted Elastin Congo red substrate. Elastase B activity was then calculated (normalized) by dividing the absorbance of the cleaved Congo red (OD492) by the cell density (OD600 of the cells before first filtration).
Elastase B production assay in P. aeruginosa. Elastase B activity in P. aeruginosa was measured according to a previously reported method, with the following modifications. P. aeruginosa PAO1 was grown overnight at 37° C. and then diluted 1:10 with fresh LB medium. Portions (2 mL) of this culture were added to test tubes containing synthetic compounds to give final compound concentrations of 20 μM or 200 μM. The tubes were incubated for 12-14 h at 37° C. The OD600 was measured for each tube, after which the contents of the tubes were filtered through a 0.2 μm Whatman filter to remove all cellular matter. A 100 μL aliquot of the supernatant was added to 900 μL of an elastin-Congo red solution (5 mg of elastin-Congo red substrate per 1 mL of buffer (100 mM Tris-HCl, 1 mM CaCl2, pH 7.2)) and incubated for 12 h at 37° C. with 250 rpm shaking. The contents of these tubes were then filtered in order to remove unreacted elastin-Congo red substrate, and the supernatant containing cleaved Congo red was isolated. A 200 μL aliquot of the supernatant was added to a 96-well multititer plate, and the OD492 was measured. Elastase B activity was calculated by dividing the absorbance of the cleaved Congo red solution (OD492) by the cell density (OD600 of the cells before first filtration).

LuxR [1] = target: T2, LuxR (Aliivibrio fischeri, UniProt P12746); assay: LuxR luminescence antagonism and agonism assays in E. coli JM109 (pSB401); assay type: cell-based, Vibrio fischeri; details: EC50 of autoinducer in E. coli JM109 (pSB401)
T2 construct: expressed in transfected cells; host or cells: E. coli JM109 (pSB401)
Protocol: Competitive inhibition assays were performed in the presence of both OHHL and PHLs 11 (at a 1:1 ratio), while agonism assays were performed with PHLs alone.
Luminescence assays. For agonism assays, an appropriate amount of AHL stock solution was added into a 96-well plate. […] A 200-μL portion of the diluted culture was added to each well of the plate. […] Luminescence was measured using a multilabel plate reader and normalized to cell density. […] All assays were performed in triplicate. Graphpad Prism software was used to calculate IC50 and EC50 values.
E. coli assay procedures. […] An overnight culture of E. coli JM109 (pSB401) was diluted 1:10 with LB medium (containing 10 μg/mL tetracycline). A 200-μL portion of the diluted culture was added to each well of the plate. Plates were grown at 30° C. with shaking (200 rpm) until the OD600=0.35-0.4 (6-8 h). Luminescence then was measured and normalized to cell density per well. […] All assays were performed in triplicate.

LuxR [2] = target: T3, LuxR (Aliivibrio fischeri, UniProt P35327); assay: cell-based; design: species or system Vibrio fischeri; details: for EC50: LuxR EC50, V. fischeri ES114 (Δ-luxI); for activation at 200 µM: read-out: V. fischeri-LuxR Activation [%], 200 μM ligand; for activation at 200 µM / V. fischeri-LuxR Activation [%]: V. fischeri ES114 (Δ-luxI), normalized to OHHL; for V. fischeri-LuxR Activation [%]: 200 μM ligand
T3 construct: a Δ-luxI derivative of V. fischeri ES114, in which the native lux operon behaves as the bioluminescent reporter; endogenous in cells; host or cells: V. fischeri ES114 (Δ-luxI)
Outline: (§1)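 Whole-cell luminescence reporter in V. fischeri ES114 (WT, Δ-luxI or Δ-luxR) or E. coli, overnight cultures diluted 1:10 and grown with compound at RT (E. coli 30° C) to OD600 0.35-0.4 (4-6 h). Luminescence normalized to cell density, triplicates; EC50/IC50 from sigmoidal fit.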

LuxR [3] = target: T3, LuxR; assay: cell-based; assay type: cell-based, Vibrio fischeri; details: for V. fischeri-LuxR Inhibition [%]: 5 μM synthetic ligand against 5 μM OHHL
Outline: as §1

LasR [4] = target: T4, LasR (Pseudomonas aeruginosa, UniProt P25084); assay: cell-based; assay type: cell-based; details: for E. coli-LasR Inhibition [%]: 5 μM synthetic ligand against 7.5 nM OdDHL
T4 construct: expressed in transfected cells; host or cells: E. coli DH5α (pJN105L pSC11), arabinose-induced
Outline: (§2)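 E. coli DH5α carrying pJN105L/pSC11 grown to OD600 0.3, LasR expression induced with arabinose (4 mg/mL), then incubated with AHLs at 37 °C to OD600 0.45. LasR activity read by β-galactosidase reporter assay; IC50/EC50 from sigmoidal dose-response fits.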

LasR [5] = target: T4, LasR; assay: cell-based; details: for E. coli-LasR Activation [%]: 5 μM ligand
Outline: as §2

[6] = target: QscR:DNA binding (PA1897 promoter) (Pseudomonas aeruginosa, UniProt G3XD77); details: EMSA
Description: We sought to obtain further insights into the mechanism of QscR modulation by non-native AHLs. […] We therefore performed electromobility shift assays (EMSA) on purified QscR and radiolabeled PA1897 promoter in the presence of selected QscR antagonists and 1.

[7] = test system: V. fischeri ES114 (Δ-luxR); assay: Luminescence assay in Δ-luxR derivative of V. fischeri ES114; assay type: cell-based, Vibrio fischeri
Protocol: (§3) Vibrio fischeri assay procedures. For primary agonism assays, an appropriate amount of concentrated control or PHL (11) stock solution, to give a final concentration of 200 μM, was added to wells in a 96-well multititer plate. An overnight culture of V. fischeri ES114 (WT, Δ-luxI or Δ-luxR) was diluted 1:10 with LBS medium. A-200 μL portion of the diluted culture was added to each well of the plate. Plates were grown at RT with shaking (200 rpm) until the OD600=0.35-0.4 (4-6 h). Luminescence then was measured and normalized to cell density per well. […] Similar methods were used for dose response assays, except the concentrations of controls and PHLs 11 used were between 0.02 and 2×10^5 nM. All assays were performed in triplicate. IC50 and EC50 values were calculated using GraphPad Prism software using a sigmoidal curve fit.

[8] = test system: wild-type V. fischeri ES114; assay: Luminescence dose response in wild-type V. fischeri ES114; assay type: cell-based, Vibrio fischeri; details: relative to OHHL
Protocol: as §3

Euprymna scolopes squid = assay: Preliminary experiments in squid / invertebrate model systems (tolerance, activity in vivo)
[9] = A. tumefaciens WCF47 (pCF372), normalized to OOHL
[10] = V. fischeri ES114 (Δ-luxI), normalized to OHHL
[11] = E. coli DH5α (pJN105L pSC11), normalized to OdDHL

T1 sequence (P33905 whole entry): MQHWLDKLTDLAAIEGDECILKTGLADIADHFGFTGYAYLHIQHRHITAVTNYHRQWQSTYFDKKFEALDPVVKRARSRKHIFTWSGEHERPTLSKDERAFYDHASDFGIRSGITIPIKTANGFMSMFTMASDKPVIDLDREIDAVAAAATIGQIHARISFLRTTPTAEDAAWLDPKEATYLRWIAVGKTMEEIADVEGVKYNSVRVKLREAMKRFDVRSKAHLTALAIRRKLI
T3 sequence (P35327 whole entry): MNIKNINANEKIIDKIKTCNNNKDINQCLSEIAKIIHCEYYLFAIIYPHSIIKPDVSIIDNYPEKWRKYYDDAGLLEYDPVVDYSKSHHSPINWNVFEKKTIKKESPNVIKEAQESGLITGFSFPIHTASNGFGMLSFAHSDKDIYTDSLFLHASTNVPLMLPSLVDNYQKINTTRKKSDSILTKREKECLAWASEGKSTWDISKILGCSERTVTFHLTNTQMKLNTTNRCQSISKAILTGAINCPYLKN
T4 sequence (P25084 whole entry): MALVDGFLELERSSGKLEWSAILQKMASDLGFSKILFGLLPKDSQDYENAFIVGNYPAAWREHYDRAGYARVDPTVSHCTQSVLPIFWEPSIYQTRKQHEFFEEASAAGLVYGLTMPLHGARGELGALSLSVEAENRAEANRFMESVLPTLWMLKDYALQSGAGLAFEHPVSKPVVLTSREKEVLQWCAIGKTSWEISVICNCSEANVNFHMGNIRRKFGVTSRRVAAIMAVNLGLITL
T2 sequence (P12746 whole entry): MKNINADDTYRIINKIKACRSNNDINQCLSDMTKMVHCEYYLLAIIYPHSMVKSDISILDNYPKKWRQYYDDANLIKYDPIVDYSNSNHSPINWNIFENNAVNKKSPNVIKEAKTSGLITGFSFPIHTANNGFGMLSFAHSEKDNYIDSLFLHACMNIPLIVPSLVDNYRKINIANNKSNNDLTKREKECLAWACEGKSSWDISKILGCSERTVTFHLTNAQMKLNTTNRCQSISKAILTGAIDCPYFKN
Sequence of QscR:DNA binding (PA1897 promoter) (G3XD77 entry or part of it): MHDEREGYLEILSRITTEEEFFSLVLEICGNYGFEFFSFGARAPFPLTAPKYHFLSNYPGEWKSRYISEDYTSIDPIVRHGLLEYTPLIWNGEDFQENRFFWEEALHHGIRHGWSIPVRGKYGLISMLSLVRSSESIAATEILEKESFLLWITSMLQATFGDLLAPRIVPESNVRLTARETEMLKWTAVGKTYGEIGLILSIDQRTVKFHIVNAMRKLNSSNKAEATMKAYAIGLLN

For `O=C(CCCc1c[nH]c2ccccc12)N[C@H]1CCOC1=O` [compound 9, indole AHL, reference compound], the “A. tumefaciens-TraR Activation [%]” value (TraR; [9]) was 0% and the “elastase B production inhibition” value (elastase B production) was 66%.
In the case of `CCCC(=O)CC(=O)N[C@H]1CCOC1=O` [compound 3, N-(3-oxo-hexanoyl)-L-homoserine lactone, reference compound], the EC50 (LuxR [1]) is reported as ~10 nM and 20 nM and the EC50 (LuxR [2]) is reported as 3000 nM and ~5000 nM.
For `CCOc1ccc(CC(=O)N[C@H]2CCOC2=O)cc1` [C25], the “Inhibition (%)” value (LuxR [3]; V. fischeri-LuxR, Library C primary antagonism screen) was 55%, the “Activation (%)” value (TraR; A. tumefaciens-TraR, Library C primary agonism screen) was 0% and the “Inhibition (%)” value (TraR; A. tumefaciens-TraR, Library C primary antagonism screen) was 35%. For the same compound, the “Inhibition (%)” value (LasR [4]; E. coli-LasR, Library C primary antagonism screen) was 15%, the “Activation (%)” value (LasR [5]; E. coli-LasR, Library C primary agonism screen) was 0% and the “Activation (%)” value (LuxR [2]; V. fischeri-LuxR, Library C primary agonism screen) was 2%. For the same compound, the “inhibition of OdDHL-dependent QscR:DNA binding” value [6] was “capable of inhibiting OdDHL (1)-dependent QscR:DNA binding”.
With `O=C(Cc1cccc([N+](=O)[O-])c1)N[C@H]1CCOC1=O` [11n, N-(3-nitro-phenylacetanoyl)-L-homoserine lactone] the “V. fischeri-LuxR Inhibition [%]” value (LuxR [3]; [10]) was “no inhibitory activity”, the “luminescence / activity in Δ-luxR derivative of V. fischeri ES114” value [7] was “Neither 11n nor OHHL induced any detectable luminescence” and the “activity in wild-type V. fischeri” value [8] was “similarly heightened activity”. The “EC50 lower / activity higher relative to OHHL” value (LuxR [2]; LuxR) was 10 fold, the EC50 (LuxR [2]) was 300 nM and the “luminescence induced higher than native ligand OHHL” value (LuxR [2]; primary agonism assay, 200 μM, same concentration as OHHL) was 29%. The activation at 200 µM (LuxR [2]) was no less than 60%, the “activity / modulation of quorum sensing in vivo” value (Euprymna scolopes squid) was “active in vivo” and the “tolerance in squid / invertebrate model systems” value (Euprymna scolopes squid) was “well tolerated”.
With `O=C(Cc1ccc([N+](=O)[O-])cc1)NC1CCOC1=O` (stereo not drawn) [B16, 4-nitro PHL] the inhibition at 5 µM (LuxR [3]; read-out: V. fischeri-LuxR Inhibition [%], 5 μM synthetic ligand against 5 μM OHHL, V. fischeri ES114 (Δ-luxI), normalized to OHHL) was 47%, the IC50 (TraR) was 2250 nM and the activation at 10 µM (TraR; read-out: A. tumefaciens-TraR Activation [%]) was 1%. For the same compound, the inhibition at 10 µM (TraR; read-out: A. tumefaciens-TraR Inhibition [%], 10 μM synthetic ligand against 100 nM OOHL, A. tumefaciens WCF47 (pCF372), normalized to OOHL) was roughly 90%, the inhibition at 5 µM (LasR [4]; read-out: E. coli-LasR Inhibition [%], 5 μM synthetic ligand against 7.5 nM OdDHL, E. coli DH5α (pJN105L pSC11), normalized to OdDHL) was 27% and the activation at 5 µM (LasR [5]; read-out: E. coli-LasR Activation [%], 5 μM ligand, E. coli DH5α (pJN105L pSC11), normalized to OdDHL) was 0%. The activation at 200 µM (LuxR [2]) was roughly 25%.
For `COc1cc(C(C)=O)ccc1OCC(=O)N[C@H]1CCOC1=O` [D16], the “V. fischeri-LuxR Inhibition [%]” value (LuxR [3]; [10]) was 40%, the “A. tumefaciens-TraR Activation [%]” value (TraR; [9]) was 0% and the “A. tumefaciens-TraR Inhibition [%]” value (TraR; [9]) was 11%. The “E. coli-LasR Inhibition [%]” value (LasR [4]; [11]) was 18%, the “E. coli-LasR Activation [%]” value (LasR [5]; [11]) was 0% and the “V. fischeri-LuxR Activation [%]” value (LuxR [2]) was 1%.
`CCOc1ccc(CC(=O)N[C@H]2CCOC2=O)cc1` [B29] was tested, and the “V. fischeri-LuxR Inhibition [%]” value (LuxR [3]; [10]) was 55%, the “A. tumefaciens-TraR Activation [%]” value (TraR; [9]) was 0% and the “A. tumefaciens-TraR Inhibition [%]” value (TraR; [9]) was 35%. For the same compound, the “E. coli-LasR Inhibition [%]” value (LasR [4]; [11]) was 15%, the “E. coli-LasR Activation [%]” value (LasR [5]; [11]) was 0% and the “V. fischeri-LuxR Activation [%]” value (LuxR [2]) was 2%.
For `C=CCCC(=O)N[C@H]1CCOC1=O` [A23], the “V. fischeri-LuxR Inhibition [%]” value (LuxR [3]; [10]) was 18%, the “A. tumefaciens-TraR Activation [%]” value (TraR; [9]) was 0% and the “A. tumefaciens-TraR Inhibition [%]” value (TraR; [9]) was 5%. For the same compound, the “E. coli-LasR Inhibition [%]” value (LasR [4]; [11]) was 12%, the “E. coli-LasR Activation [%]” value (LasR [5]; [11]) was 0% and the “V. fischeri-LuxR Activation [%]” value (LuxR [2]) was 2%.
